Data taken from patent US11591335B2, “Bicyclic pesticidal compounds” (BASF SE, priority 2017, dated 2023).

Key:
Type in all cases: in vivo
Spodoptera Eridania = assay: Southern armyworm (Spodoptera Eridania), sprayed lima bean plants; conditions: 96 h, larvae, 4 days after treatment, read-out: mortality in comparison with untreated controls
Method: The active compounds were formulated by a Tecan liquid handler in 100% cyclohexanone as a 10,000 ppm solution supplied in tubes. The 10,000 ppm solution was serially diluted in 100% cyclohexanone to make interim solutions. These served as stock solutions for which final dilutions were made by the Tecan in 50% acetone:50% water (v/v) into 10 or 20 ml glass vials. A nonionic surfactant (Kinetic®) was included in the solution at a volume of 0.01% (v/v). The vials were then inserted into an automated electrostatic sprayer equipped with an atomizing nozzle for application to plants/insects.
Lima bean plants (variety Sieva) were grown 2 plants to a pot and selected for treatment at the 1st true leaf stage. Test solutions were sprayed onto the foliage by an automated electrostatic plant sprayer equipped with an atomizing spray nozzle. The plants were dried in the sprayer fume hood and then removed from the sprayer. Each pot was placed into perforated plastic bags with a zip closure. About 10 to 11 armyworm larvae were placed into the bag and the bags zipped closed. Test plants were maintained in a growth room at about 250C and about 20-40% relative humidity for 4 days, avoiding direct exposure to fluorescent light (24 hour photoperiod) to prevent trapping of heat inside the bags. Mortality and reduced feeding were assessed 4 days after treatment, compared to untreated control plants.

Bemisia argentifolii = assay: Silverleaf whitefly (Bemisia argentifolii), sprayed cotton plants; conditions: 72 h, adults, 3 days after treatment, read-out: mortality in comparison with untreated controls
Method: The active compounds were formulated by a Tecan liquid handler in 100% cyclohexanone as a 10,000 ppm solution supplied in tubes. The 10,000 ppm solution was serially diluted in 100% cyclohexanone to make interim solutions. These served as stock solutions for which final dilutions were made by the Tecan in 50% acetone:50% water (v/v) into 5 or 10 ml glass vials. A nonionic surfactant (Kinetic®) was included in the solution at a volume of 0.01% (v/v). The vials were then inserted into an automated electrostatic sprayer equipped with an atomizing nozzle for application to plants/insects.
Cotton plants at the cotyledon stage (one plant per pot) were sprayed by an automated electrostatic plant sprayer equipped with an atomizing spray nozzle. The plants were dried in the sprayer fume hood and then removed from the sprayer. Each pot was pla-ced into a plastic cup and about 10 to 12 whitefly adults (approximately 3-5 days old) were introduced. The insects were collected using an aspirator and a nontoxic Tygon® tubing connected to a barrier pipette tip. The tip, containing the collected insects, was then gently inserted into the soil containing the treated plant, allowing insects to crawl out of the tip to reach the foliage for feeding. Cups were covered with a reusable screened lid. […] Mortality was assessed 3 days after treatment, compared to untreated control plants.

Myzuspersicae = assay: Green peach aphid (Myzuspersicae) control through systemic means, artificial diet under membrane; conditions: Myzus persicae, 72 h, adult aphids on treated diet, 3 days, read-out: mortality in comparison with untreated controls
Description: For evaluating control of green peach aphid (Myzuspersicae) through systemic means the test unit consisted of 96-well-microtiter plates containing liquid artificial diet under an artificial membrane.
The compounds were formulated using a solution containing 75% v/v water and 25% v/v DMSO. Different concentrations of formulated compounds were pipetted into the aphid diet, using a custom built pipetter, at two replications.
After application, 5-8 adult aphids were placed on the artificial membrane inside the microtiter plate wells. The aphids were then allowed to suck on the treated aphid diet and incubated at about 23±1° C. and about 50±5% relative humidity for 3 days. Aphid mortality and fecundity was then visually assessed.

Anthonomus grandis = assay: Boll weevil (Anthonomus grandis) control, microtiter plate insect diet test; conditions: 120 h, egg and larval mortality after 5 days, read-out: mortality in comparison with untreated controls
Method: For evaluating control of boll weevil (Anthonomus grandis) the test unit consisted of 96-well-microtiter plates containing an insect diet and 5-10 A. grandis eggs.
The compounds were formulated using a solution containing 75% v/v water and 25% v/v DMSO. Different concentrations of formulated compounds were sprayed onto the insect diet at 5 μl, using a custom built micro atomizer, at two replications.
After application, microtiter plates were incubated at about 25±1° C. and about 75±5% relative humidity for 5 days. Egg and larval mortality was then visually assessed.

Plutella xylostella = assay: Diamond back moth (Plutella xylostella), cabbage leaf dip test; conditions: foliar, 3rd instar larvae, 72 hours after treatment, read-out: mortality in comparison with untreated controls
Method: (§1) The active compound is dissolved at the desired concentration in a mixture of 1:1 (vol:vol) distilled water: acetone. Surfactant (Kinetic® HV) is added at a rate of 0.01% (vol/vol). The test solution is prepared at the day of use.
Leaves of cabbage were dipped in test solution and air-dried. Treated leaves were placed in petri dishes lined with moist filter paper and inoculated with ten 3rd instar larvae. Mortality was recorded 72 hours after treatment. Feeding damages were also recorded using a scale of 0-100%.

Heliothis virescens = assay: Tobacco budworm (Heliothis virescens) control, microtiter plate insect diet test; conditions: 120 h, egg and larval mortality after 5 days, read-out: mortality in comparison with untreated controls
Method: For evaluating control of tobacco budworm (Heliothis virescens) the test unit consisted of 96-well-microtiter plates containing an insect diet and 15-25 H. virescens eggs.
The compounds were formulated using a solution containing 75% v/v water and 25% v/v DMSO. Different concentrations of formulated compounds were sprayed onto the insect diet at 10 μl, using a custom built micro atomizer, at two replications.
After application, microtiter plates were incubated at about 28±1° C. and about 80±5% relative humidity for 5 days. Egg and larval mortality was then visually assessed.

Aphis craccivora = assay: Cowpea aphid (Aphis craccivora), sprayed potted cowpea plants; conditions: after 72 hours, read-out: mortality in comparison with untreated controls
Method: as §1
Potted cowpea plants were colonized with approximately 30-50 aphids of various stages by manually transferring a leaf tissue cut from infested plant 24 hours before application. Plants were sprayed with the test solutions using a DeVilbiss® hand atomizer at 20-30 psi (=1.38 to 2.07 bar) after the pest population has been checked. Treated plants are maintained on light carts at about 25-26° C. Percent mortality was assessed after 72 hours.

Nephotettix virescens = assay: Rice green leafhopper (Nephotettix virescens), sprayed rice seedlings; conditions: adults, after 72 hours, read-out: mortality in comparison with untreated controls
Method: (§2) Four to five-week old rice seedlings with cut upper leaf portion were cleaned and washed 24 hours before spraying. The active compounds were formulated in 1:1 acetone:water (vol:vol), and 0.01% vol/vol surfactant (Kinetic® HV) was added. Potted rice seedlings were sprayed with 5-6 ml test solution, air dried, covered with Mylar cages and inoculated with 10 adults. Treated rice plants were kept at about 28-29° C. and relative humidity of about 50-60%. Percent mortality was recorded after 72 hours.

Nezara viridula = assay: Green soldier stink bug (Nezara viridula), sprayed soybean pods in Petri dishes; conditions: 120 h, late 3rd instar, after 5 days, read-out: mortality in comparison with untreated controls
Method: The active compound is dissolved at the desired concentration in a mixture of 1:1 (vol:vol) distilled water: aceteone. Surfactant (Kinetic® HV) is added at a rate of 0.01% (vol/vol). The test solution is prepared at the day of use.
Soybean pods were placed in 90×50 mm glass Petri dishes lined with moist filter paper and inoculated with ten late 3rd instar N. viridula. Using a hand atomizer, an approximately 2 ml solution is sprayed into each Petri dish. Treated cups were kept at about 25-26° C. and relative humidity of about 65-70%. Percent mortality was recorded after 5 days.

Nilaparvata lugens = assay: Rice brown plant hopper (Nilaparvata lugens), sprayed rice seedlings; conditions: adults, after 72 hours, read-out: mortality in comparison with untreated controls
Method: as §2, with “seedlings” for “seedlings with cut upper leaf portion”, “(vol:vol)” for “(vol:vol),”

Megoura viciae = assay: Vetch aphid (Megoura viciae) control, broad bean leaf disk test; conditions: foliar, 120 h, adult aphids on treated leaf disks, 5 days, read-out: mortality in comparison with untreated controls
Method: For evaluating control of vetch aphid (Megoura viciae) through contact or systemic means the test unit consisted of 24-well-microtiter plates containing broad bean leaf disks.
The compounds were formulated using a solution containing 75% v/v water and 25% v/v DMSO. Different concentrations of formulated compounds were sprayed onto the leaf disks at 2.5 μl, using a custom built micro atomizer, at two replications.
After application, the leaf disks were air-dried and 5-8 adult aphids placed on the leaf disks inside the microtiter plate wells. The aphids were then allowed to suck on the treated leaf disks and incubated at about 23±1° C. and about 50±5% relative humidity for 5 days. Aphid mortality and fecundity was then visually assessed.

Chilo suppressalis = assay: Striped stem borer (Chilo suppressalis), sprayed petriplates with rice straw; conditions: 300 ppm; first-instar larvae, 72 hours after treatment
Method: as §1
Ten first-instar larvae are allowed to crawl on sprayed petriplates for 1 minute and then provided with one freshly cut rice straw per plate. After 10 minutes when all of the larvae are inside the straw will then be covered with Petri lid. Percent mortality is recorded after 72 hours after treatment.

SMILES	mortality at 300 ppm (Spodoptera Eridania) [%]	mortality at 300 ppm (Bemisia argentifolii) [%]	mortality at 2500 ppm (Myzuspersicae) [%]	mortality at 2500 ppm (Anthonomus grandis) [%]	mortality at 300 ppm (Plutella xylostella) [%]	mortality at 2500 ppm (Heliothis virescens) [%]	mortality at 300 ppm (Aphis craccivora) [%]	mortality at 300 ppm (Nephotettix virescens) [%]	mortality at 300 ppm (Nezara viridula) [%]	mortality at 300 ppm (Nilaparvata lugens) [%]	mortality at 2500 ppm (Megoura viciae) [%]	mortality in comparison with untreated controls (Chilo suppressalis)
CCS(=O)(=O)c1ccc(-n2cnc(C(F)(F)F)n2)nc1-c1cn2c(=O)n(C)c(C(F)(F)F)cc2n1 [I-1-1, 2-[3-ethylsulfonyl-6-[3-(trifluoromethyl)-1,2,4-triazol-1-yl]-2-pyridyl]-6-methyl-7-(trifluoromethyl)imidazo[1,2-c]pyrimidin-5-one]	> 75	> 75	> 75	> 75	> 75	> 75						
CCS(=O)(=O)c1cc(N2CCCC2=O)cnc1-c1cn2c(=O)n(C)c(C(F)(F)F)cc2n1 [I-1-3, 2-[3-ethylsulfonyl-5-(2-oxopyrrolidin-1-yl)-2-pyridyl]-6-methyl-7-(trifluoromethyl)imidazo[1,2-c]pyrimidin-5-one]	> 75		> 75	> 75		> 75	> 75	> 75	> 75	> 75	> 75	
CCS(=O)(=O)c1cc(-c2ncccc2F)cnc1-c1cn2c(=O)n(C)c(C(F)(F)F)cc2n1 [I-1-4]												over 75%
